Measurements from ChEMBL document CHEMBL3797052 (Eur J Med Chem, 2016).

Tested on: not listed separately
Experiment: Antiproliferative activity against human IGROV1 cells assessed as cell growth at 10^-5 M after 48 hrs by sulforhodamine B assay
Assay type: functional
Details: IGROV-1, 48 h, read-out: Activity

**Q.** With `CNC(=O)c1cc(Oc2ccc3nc(NC(=O)Nc4cc(C(F)(F)F)cc(C(F)(F)F)c4)sc3c2)ccn1` as the compound, how does the growth at 10 µM read?
**A.** -62%

Tested on: not listed separately
Experiment: Antiproliferative activity against human OVCAR3 cells assessed as cell growth at 10^-5 M after 48 hrs by sulforhodamine B assay
Assay type: functional
Details: OVCAR-3, 48 h, read-out: Activity

**Q.** For `CNC(=O)c1cc(Oc2ccc3nc(NC(=O)Nc4cc(C(F)(F)F)cc(C(F)(F)F)c4)sc3c2)ccn1`, which growth at 10 µM is on record?
**A.** -93%

Tested on: not listed separately
Experiment: Antiproliferative activity against human OVCAR5 cells assessed as cell growth at 10^-5 M after 48 hrs by sulforhodamine B assay
Assay type: functional
Details: OVCAR-5, 48 h, read-out: Activity

**Q.** For `CNC(=O)c1cc(Oc2ccc3nc(NC(=O)Nc4cc(C(F)(F)F)cc(C(F)(F)F)c4)sc3c2)ccn1`, which growth at 10 µM is on record?
**A.** -64%

Tested on: not listed separately
Experiment: Antiproliferative activity against human NCI-ADR-RES cells assessed as cell growth at 10^-5 M after 48 hrs by sulforhodamine B assay
Assay type: functional
Details: read-out: Activity

**Q.** With `CNC(=O)c1cc(Oc2ccc3nc(NC(=O)Nc4cc(C(F)(F)F)cc(C(F)(F)F)c4)sc3c2)ccn1` as the compound, how does the growth at 10 µM read?
**A.** -62%

Tested on: not listed separately
Experiment: Antiproliferative activity against human SKOV3 cells assessed as cell growth at 10^-5 M after 48 hrs by sulforhodamine B assay
Assay type: functional
Details: SK-OV-3, 48 h, read-out: Activity

**Q.** For `CNC(=O)c1cc(Oc2ccc3nc(NC(=O)Nc4cc(C(F)(F)F)cc(C(F)(F)F)c4)sc3c2)ccn1`, which growth at 10 µM is on record?
**A.** -71%

Tested on: 786-0
Experiment: Antiproliferative activity against human 786-0 cells assessed as cell growth at 10^-5 M after 48 hrs by sulforhodamine B assay
Assay type: functional
Details: 786-0, 48 h, read-out: Activity

**Q.** With `CNC(=O)c1cc(Oc2ccc3nc(NC(=O)Nc4cc(C(F)(F)F)cc(C(F)(F)F)c4)sc3c2)ccn1` as the compound, how does the growth at 10 µM read?
**A.** -89%

Tested on: ACHN
Experiment: Antiproliferative activity against human ACHN cells assessed as cell growth at 10^-5 M after 48 hrs by sulforhodamine B assay
Assay type: functional
Details: read-out: Activity

**Q.** For `CNC(=O)c1cc(Oc2ccc3nc(NC(=O)Nc4cc(C(F)(F)F)cc(C(F)(F)F)c4)sc3c2)ccn1`, which growth at 10 µM is on record?
**A.** -77%

Tested on: not listed separately
Experiment: Antiproliferative activity against human RXF393 cells assessed as cell growth at 10^-5 M after 48 hrs by sulforhodamine B assay
Assay type: functional
Details: RXF 393, 48 h, read-out: Activity

**Q.** For `CNC(=O)c1cc(Oc2ccc3nc(NC(=O)Nc4cc(C(F)(F)F)cc(C(F)(F)F)c4)sc3c2)ccn1`, which growth at 10 µM is on record?
**A.** -69%

Tested on: SN12C
Experiment: Antiproliferative activity against human SN12C cells assessed as cell growth at 10^-5 M after 48 hrs by sulforhodamine B assay
Assay type: functional
Details: read-out: Activity

**Q.** With `CNC(=O)c1cc(Oc2ccc3nc(NC(=O)Nc4cc(C(F)(F)F)cc(C(F)(F)F)c4)sc3c2)ccn1` as the compound, how does the growth at 10 µM read?
**A.** -58%

Tested on: not listed separately
Experiment: Antiproliferative activity against human TK10 cells assessed as cell growth at 10^-5 M after 48 hrs by sulforhodamine B assay
Assay type: functional
Details: TK-10, 48 h, read-out: Activity

**Q.** For `CNC(=O)c1cc(Oc2ccc3nc(NC(=O)Nc4cc(C(F)(F)F)cc(C(F)(F)F)c4)sc3c2)ccn1`, which growth at 10 µM is on record?
**A.** -79%

Tested on: not listed separately
Experiment: Antiproliferative activity against human PC3 cells assessed as cell growth at 10^-5 M after 48 hrs by sulforhodamine B assay
Assay type: functional
Details: PC-3, 48 h, read-out: Activity

**Q.** With `CNC(=O)c1cc(Oc2ccc3nc(NC(=O)Nc4cc(C(F)(F)F)cc(C(F)(F)F)c4)sc3c2)ccn1` as the compound, how does the growth at 10 µM read?
**A.** -65%

Tested on: MCF7
Experiment: Antiproliferative activity against human MCF7 cells assessed as cell growth at 10^-5 M after 48 hrs by sulforhodamine B assay
Assay type: functional
Details: MCF7, 48 h, read-out: Activity

**Q.** With `CNC(=O)c1cc(Oc2ccc3nc(NC(=O)Nc4cc(C(F)(F)F)cc(C(F)(F)F)c4)sc3c2)ccn1` as the compound, how does the growth at 10 µM read?
**A.** -59%

Tested on: MDA-MB-231
Experiment: Antiproliferative activity against human MDA-MB-231 cells assessed as cell growth at 10^-5 M after 48 hrs by sulforhodamine B assay
Assay type: functional
Details: MDA-MB-231, 48 h, read-out: Activity

**Q.** Which growth at 10 µM does the source give for `CNC(=O)c1cc(Oc2ccc3nc(NC(=O)Nc4cc(C(F)(F)F)cc(C(F)(F)F)c4)sc3c2)ccn1` here?
**A.** -64%

Tested on: CCRF-CEM
Experiment: Antiproliferative activity against human CCRF-CEM cells assessed as growth inhibition after 48 hrs by sulforhodamine B assay
Assay type: functional
Details: not given

**Q.** Which GI50 does the source give for `CNC(=O)c1cc(Oc2ccc3nc(NC(=O)Nc4cc(C(F)(F)F)cc(C(F)(F)F)c4)sc3c2)ccn1` here?
**A.** 1070 nM

**Q.** What about the TGI of the same compound?
**A.** 5830 nM

Same assay, conditions: read-out: LC50 (the source's name)

**Q.** For `CNC(=O)c1cc(Oc2ccc3nc(NC(=O)Nc4cc(C(F)(F)F)cc(C(F)(F)F)c4)sc3c2)ccn1`, which CC50 is on record?
**A.** > 100000 nM

Target: RAF proto-oncogene serine/threonine-protein kinase (Homo sapiens, UniProt P04049)
Experiment: Inhibition of human C-RAF measured after 40 mins by scintillation counting
Details: not given

Sequence of RAF proto-oncogene serine/threonine-protein kinase (P04049 whole entry): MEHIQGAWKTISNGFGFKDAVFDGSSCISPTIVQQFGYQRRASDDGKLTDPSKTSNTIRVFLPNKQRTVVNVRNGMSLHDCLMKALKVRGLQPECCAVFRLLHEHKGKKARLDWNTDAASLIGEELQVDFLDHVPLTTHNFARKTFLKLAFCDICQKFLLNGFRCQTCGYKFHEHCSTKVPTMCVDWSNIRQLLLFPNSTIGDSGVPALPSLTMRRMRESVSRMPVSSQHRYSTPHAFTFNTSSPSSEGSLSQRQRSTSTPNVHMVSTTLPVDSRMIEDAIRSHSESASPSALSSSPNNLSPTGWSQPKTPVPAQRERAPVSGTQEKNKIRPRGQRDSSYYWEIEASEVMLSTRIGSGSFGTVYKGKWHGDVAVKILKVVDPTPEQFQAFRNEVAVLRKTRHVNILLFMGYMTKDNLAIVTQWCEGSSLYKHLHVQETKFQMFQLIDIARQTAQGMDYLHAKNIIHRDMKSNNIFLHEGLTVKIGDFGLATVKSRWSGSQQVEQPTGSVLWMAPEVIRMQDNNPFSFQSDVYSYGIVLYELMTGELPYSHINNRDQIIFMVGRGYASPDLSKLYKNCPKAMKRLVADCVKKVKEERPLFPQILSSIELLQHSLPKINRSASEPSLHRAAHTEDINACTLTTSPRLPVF

**Q.** For `CNC(=O)c1cc(Oc2ccc3nc(NC(=O)Nc4cc(C(F)(F)F)cc(C(F)(F)F)c4)sc3c2)ccn1`, which IC50 is on record?
**A.** 566 nM

Tested on: CCRF-CEM
Experiment: Antiproliferative activity against human CCRF-CEM cells assessed as cell growth at 10^-8 M after 48 hrs by sulforhodamine B assay
Assay type: functional
Details: read-out: Activity

**Q.** For `CNC(=O)c1cc(Oc2ccc3nc(NC(=O)Nc4cc(C(F)(F)F)cc(C(F)(F)F)c4)sc3c2)ccn1`, which growth at 0.01 µM is on record?
**A.** 111%

Tested on: not listed separately
Experiment: Antiproliferative activity against human HCC2998 cells assessed as cell growth at 10^-4 M after 48 hrs by sulforhodamine B assay
Assay type: functional
Details: HCC 2998, 48 h, read-out: Activity

**Q.** Which growth at 100 µM does the source give for `CNC(=O)c1cc(Oc2ccc3nc(NC(=O)Nc4cc(C(F)(F)F)cc(C(F)(F)F)c4)sc3c2)ccn1` here?
**A.** -74%

Tested on: A498
Experiment: Antiproliferative activity against human A498 cells assessed as cell growth at 10^-8 M after 48 hrs by sulforhodamine B assay
Assay type: functional
Details: A498, 48 h, read-out: Activity

**Q.** With `CNC(=O)c1cc(Oc2ccc3nc(NC(=O)Nc4cc(C(F)(F)F)cc(C(F)(F)F)c4)sc3c2)ccn1` as the compound, how does the growth at 0.01 µM read?
**A.** 100%
